# Measured values from patent US20150320773A1, “TREATMENT OF INFLAMMATION” (Vascular Biogenics Ltd., priority 2011, published 2015).
# Read-outs that look alike come from different tables or passages of the source.
# Tests used:
# TLR5 = TLR5 (Homo sapiens, UniProt O60602); conditions: human monocytes; flagellin; 1.7, 8.5 or 17 μM
# CCR5 = CCR5 (Homo sapiens, UniProt P51681); conditions: escalating doses
# Experimental: (§1) Analyses were performed by Millipore GPCR Profiler Service, by measuring intracellular calcium signal in real time using FLIPR^TETRA device. […] Antagonist percentage inhibition was referenced to EC80 control wells for each tested GPCR.
# CCR2B = CCR2B (Homo sapiens, UniProt P41597); conditions: escalating doses
# Experimental: as §1
# IL-1 receptor (IL-1R) = IL-1 receptor (IL-1R) (Mus musculus, UniProt P13504); conditions: mouse BMDCs; 1.7, 8.5 or 17 μM
# TLR4 = molecular target: T1, TLR4 (Mus musculus, UniProt Q9QUK6)
# T1 sequence (Q9QUK6 26-835): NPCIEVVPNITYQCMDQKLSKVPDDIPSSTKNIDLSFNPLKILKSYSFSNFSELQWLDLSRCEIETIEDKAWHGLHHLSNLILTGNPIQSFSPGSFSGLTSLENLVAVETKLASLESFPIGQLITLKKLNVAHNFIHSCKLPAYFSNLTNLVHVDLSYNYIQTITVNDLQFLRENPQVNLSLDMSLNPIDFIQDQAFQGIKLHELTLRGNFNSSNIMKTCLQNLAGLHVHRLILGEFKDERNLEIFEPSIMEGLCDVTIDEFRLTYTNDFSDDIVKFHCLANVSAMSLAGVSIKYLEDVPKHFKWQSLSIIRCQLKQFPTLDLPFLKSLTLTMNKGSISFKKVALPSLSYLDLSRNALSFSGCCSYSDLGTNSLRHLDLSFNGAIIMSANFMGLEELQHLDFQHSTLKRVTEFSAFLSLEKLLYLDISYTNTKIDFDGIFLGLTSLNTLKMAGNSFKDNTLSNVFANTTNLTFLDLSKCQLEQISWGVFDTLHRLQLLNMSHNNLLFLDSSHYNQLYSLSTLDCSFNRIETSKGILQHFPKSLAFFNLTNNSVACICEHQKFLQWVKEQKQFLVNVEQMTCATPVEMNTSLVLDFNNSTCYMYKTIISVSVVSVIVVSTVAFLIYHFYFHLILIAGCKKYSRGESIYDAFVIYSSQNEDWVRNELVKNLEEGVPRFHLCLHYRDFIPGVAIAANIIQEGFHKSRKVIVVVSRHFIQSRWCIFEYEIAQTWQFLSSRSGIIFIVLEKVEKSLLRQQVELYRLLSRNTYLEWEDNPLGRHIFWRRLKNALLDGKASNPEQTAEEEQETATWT
# T1 sequence (Q9JHF9 19-160 partner): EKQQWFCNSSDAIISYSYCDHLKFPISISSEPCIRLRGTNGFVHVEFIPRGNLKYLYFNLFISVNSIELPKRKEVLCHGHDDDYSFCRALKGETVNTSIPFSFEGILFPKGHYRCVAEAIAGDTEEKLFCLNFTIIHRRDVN
# Experimental: Cells were washed and re-suspended in lysis buffer containing 1:100 dithiothreitol (DTT) (Bio-Lab), and phosphatase and protease inhibitors (Thermo Scientific). Samples were loaded on a precasted Criterion TGX gel (BIO-RAD, UK) and transferred onto nitrocellulose membrane. Blots were blocked with 5% milk or bovine serum albumin (BSA) in TBST (Tris buffer saline with TWEEN 20) for 1 hour, followed by incubation with primary and secondary antibodies. Membranes were developed using the ECL kit (Thermo Scientific).
# Toll-like receptors were activated in mouse BMDCs (bone marrow dendritic cells) by specific agonists, and the effect of receptor activation was determined via Western blot for phosphorylation of p38 MAP kinase, which is downstream of TLRs.
# C57B6J WT mice = assay: Thioglycollate-induced peritonitis model (monocyte migration in vivo); parameters: species or system mouse; conditions: oral
# Experimental: After 5 days of administration, thioglycollate was injected to the peritoneal cavity of the mice to induce monocyte migration. Four days later, mice were sacrificed and migrating cells were collected from the peritoneum and counted by hemocytometer. Data are mean±SE, collected from 3-4 independent experiments. […] FIG. 26B is a FACS analysis. To characterize their identity, migrating cells were stained with the macrophage marker F4/80 and the neutrophils marker GR-1.
# (§2) In this model, injection of thioglycollate to the peritoneal cavity induces a “sterile” inflammatory response recruiting peripheral monocytes to the peritoneum, where they differentiate into macrophages (Li, Y. M., et al., J. Immunol. Methods. 1997; 201:183-188). […] Upon sacrifice, the number and identity of the cells accumulating in the peritoneum was determined by FACS, and plasma samples were taken for quantification by Liquid Chromatography-Tandem Mass Spectrometry. Three days after thioglycollate injection 95% of the cells in the peritoneum were macrophages (F4/80 positive, GR-1 negative cells) (FIG. 26B).
# RAW 264.7 macrophages = conditions: 0, 8.5 or 17 μM VB-201; streptavidin-APC
# Excerpt: Cells were washed and LPS binding was detected using streptavidin-APC.
# CD14 is known to bind to lipopolysaccharide (LPS).
# COX-1 = COX-1 (Homo sapiens, UniProt P23219); conditions: concentrations of up to 10 μM; data not shown
# [1] = test system: phosphorylation of Akt, MEK1/2, ERK1/2 and p38 in human monocytes; conditions: stimulation with MCP-1, MIP-1α or RANTES; shown in WO 2011/083469; cited from earlier work
# [2] = Plasma concentration of VB-201 (Liquid Chromatography-Tandem Mass Spectrometry); type: in vivo, mouse; conditions: oral
# Experimental: as §2
# ApoE KO mice = assay: Atherosclerosis study in ApoE KO mice
# Experimental: Dosing was performed once a day, for 8 weeks (n=1-12/group). […] Lesion area was calculated using a computerized analysis method (Image Pro Plus software, V. 4.5.1.29, Medical Cybernetics Corporation). Aorta lesion area was determined using the Image-Pro Plus software, which measured the staining area covered by Sudan IV stain adhering to the lesioned tissue. Lesion size in the aorta was measured and the percentage of lesioned area was calculated relative to the size of the entire aorta.
# Immunostaining was performed on frozen sections which were fixed with cold acetone and blocked with 4% normal rabbit serum/PBS (Vector Lab). Following incubation with Rat anti-mouse CD68 (Serotec NCA1957; 1:250) and anti-Rat biotinylated antibody (Vector Lab AB-4001; 1:200), signal was developed using Vectastain ABC-Alkaline phosphatase kit and Vector Red Substrate (Vector Lab). Mayer's Hematoxylin was used for counterstaining.
# [3] = test system: Human monocyte-derived dendritic cells (DCs); assay: cAMP accumulation assay; type: cell-based; conditions: 4 hours; VB-201 1-5 μg/ml; oxidized PAPC escalating doses; forskolin positive control
# Experimental: Cells were incubated for 4 hours at 37° C. in the presence of the phosphodiesterase inhibitors IBMX (Calbiochem; 0.5 mM) and RO-20-1724 (Biomol; 0.5 mM) to prevent cAMP degredation. For the quantification of [^3H]cAMP formation, the incubation was terminated by removal of the medium and addition of 2.5% perchloric acid containing 0.1 mM unlabeled cAMP (Sigma), followed by neutralization with 4.2 M KOH and 1.85 M K2CO3.
# [4] = test system: kinases, phosphatases, ion channels/ransporters; assay: Selectivity: effect on activity of additional proteins
# TLR2 = TLR2 (Homo sapiens, UniProt O60603); conditions: 1 μM SAA, 5 μg/ml VB-201
# TLR2, sequence (O60603 21-784): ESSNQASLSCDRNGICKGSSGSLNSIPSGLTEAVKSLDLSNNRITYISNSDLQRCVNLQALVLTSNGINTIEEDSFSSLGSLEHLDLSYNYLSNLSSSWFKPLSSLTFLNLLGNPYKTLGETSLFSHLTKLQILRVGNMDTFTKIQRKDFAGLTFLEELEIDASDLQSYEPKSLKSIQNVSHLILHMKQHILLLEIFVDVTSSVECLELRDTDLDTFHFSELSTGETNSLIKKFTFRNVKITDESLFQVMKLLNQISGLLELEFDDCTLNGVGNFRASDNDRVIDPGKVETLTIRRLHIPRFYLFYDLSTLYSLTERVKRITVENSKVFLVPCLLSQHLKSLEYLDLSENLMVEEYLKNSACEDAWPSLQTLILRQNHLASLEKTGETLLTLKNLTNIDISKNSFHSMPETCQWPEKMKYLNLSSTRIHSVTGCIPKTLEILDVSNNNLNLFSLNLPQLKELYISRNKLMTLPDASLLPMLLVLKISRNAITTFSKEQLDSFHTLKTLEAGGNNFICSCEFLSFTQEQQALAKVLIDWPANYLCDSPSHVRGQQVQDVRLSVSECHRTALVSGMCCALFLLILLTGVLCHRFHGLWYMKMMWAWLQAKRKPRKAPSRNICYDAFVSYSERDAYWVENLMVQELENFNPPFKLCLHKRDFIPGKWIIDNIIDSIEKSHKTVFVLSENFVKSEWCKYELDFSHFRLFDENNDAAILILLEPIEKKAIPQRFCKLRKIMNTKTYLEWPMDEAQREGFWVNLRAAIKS
# CCR2B, sequence (P41597 1-360 isoform P41597-2): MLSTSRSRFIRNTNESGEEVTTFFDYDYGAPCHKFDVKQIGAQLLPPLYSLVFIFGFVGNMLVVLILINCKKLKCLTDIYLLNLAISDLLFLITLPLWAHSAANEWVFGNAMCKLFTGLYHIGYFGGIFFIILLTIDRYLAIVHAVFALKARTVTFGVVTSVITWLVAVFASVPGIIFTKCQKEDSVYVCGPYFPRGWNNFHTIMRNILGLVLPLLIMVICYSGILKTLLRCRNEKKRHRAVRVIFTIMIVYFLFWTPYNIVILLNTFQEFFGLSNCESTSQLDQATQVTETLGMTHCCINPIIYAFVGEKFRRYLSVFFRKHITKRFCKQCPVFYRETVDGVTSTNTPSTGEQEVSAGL
# COX-1, sequence (P23219 24-599): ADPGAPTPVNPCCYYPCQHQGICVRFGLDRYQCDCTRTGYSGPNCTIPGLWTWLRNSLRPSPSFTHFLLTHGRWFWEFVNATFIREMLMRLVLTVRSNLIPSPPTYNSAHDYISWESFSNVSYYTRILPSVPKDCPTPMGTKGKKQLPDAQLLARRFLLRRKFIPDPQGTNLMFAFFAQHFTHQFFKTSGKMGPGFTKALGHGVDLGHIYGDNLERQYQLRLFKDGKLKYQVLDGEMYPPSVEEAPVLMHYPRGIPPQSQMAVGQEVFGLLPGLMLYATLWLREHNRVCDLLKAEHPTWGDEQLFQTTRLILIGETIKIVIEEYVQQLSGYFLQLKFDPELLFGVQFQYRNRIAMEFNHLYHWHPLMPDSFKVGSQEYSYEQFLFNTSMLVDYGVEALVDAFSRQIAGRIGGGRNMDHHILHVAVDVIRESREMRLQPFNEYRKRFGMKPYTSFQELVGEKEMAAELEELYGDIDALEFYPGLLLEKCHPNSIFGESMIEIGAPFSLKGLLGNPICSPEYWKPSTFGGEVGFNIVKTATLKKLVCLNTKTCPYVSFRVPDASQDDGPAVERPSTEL
# CCR5, sequence (P51681 whole entry): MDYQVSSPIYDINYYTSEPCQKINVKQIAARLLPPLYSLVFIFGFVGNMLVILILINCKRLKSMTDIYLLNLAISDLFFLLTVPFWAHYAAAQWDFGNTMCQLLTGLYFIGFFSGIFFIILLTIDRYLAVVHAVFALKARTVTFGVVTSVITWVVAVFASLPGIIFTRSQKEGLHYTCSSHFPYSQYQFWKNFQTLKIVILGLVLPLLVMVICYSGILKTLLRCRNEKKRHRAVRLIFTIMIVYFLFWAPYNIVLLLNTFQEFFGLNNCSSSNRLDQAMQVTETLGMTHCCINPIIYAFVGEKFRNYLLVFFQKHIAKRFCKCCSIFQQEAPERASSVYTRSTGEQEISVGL
# TLR5, sequence (O60602 21-858): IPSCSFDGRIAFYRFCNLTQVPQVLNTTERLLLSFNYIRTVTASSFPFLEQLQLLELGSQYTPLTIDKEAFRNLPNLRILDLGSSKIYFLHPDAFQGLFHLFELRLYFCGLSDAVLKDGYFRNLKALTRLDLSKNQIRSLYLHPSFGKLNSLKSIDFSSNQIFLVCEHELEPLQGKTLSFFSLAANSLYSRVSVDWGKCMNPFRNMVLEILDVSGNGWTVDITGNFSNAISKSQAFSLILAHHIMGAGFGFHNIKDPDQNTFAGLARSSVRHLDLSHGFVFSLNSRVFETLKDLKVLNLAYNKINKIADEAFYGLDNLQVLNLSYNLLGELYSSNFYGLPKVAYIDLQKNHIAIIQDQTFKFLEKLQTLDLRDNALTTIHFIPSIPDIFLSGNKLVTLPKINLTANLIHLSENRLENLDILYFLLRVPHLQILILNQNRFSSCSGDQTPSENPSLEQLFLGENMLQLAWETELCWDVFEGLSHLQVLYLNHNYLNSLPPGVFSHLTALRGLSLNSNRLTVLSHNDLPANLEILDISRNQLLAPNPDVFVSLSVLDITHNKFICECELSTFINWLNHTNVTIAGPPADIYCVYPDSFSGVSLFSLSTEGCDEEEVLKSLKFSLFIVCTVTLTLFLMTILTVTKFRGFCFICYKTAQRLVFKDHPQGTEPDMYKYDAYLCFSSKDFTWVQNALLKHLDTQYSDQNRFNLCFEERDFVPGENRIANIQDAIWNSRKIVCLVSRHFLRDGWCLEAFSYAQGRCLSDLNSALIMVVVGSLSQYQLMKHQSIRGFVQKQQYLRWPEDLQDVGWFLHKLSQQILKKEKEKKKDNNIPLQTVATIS
# IL-1 receptor (IL-1R), sequence (P13504 20-576): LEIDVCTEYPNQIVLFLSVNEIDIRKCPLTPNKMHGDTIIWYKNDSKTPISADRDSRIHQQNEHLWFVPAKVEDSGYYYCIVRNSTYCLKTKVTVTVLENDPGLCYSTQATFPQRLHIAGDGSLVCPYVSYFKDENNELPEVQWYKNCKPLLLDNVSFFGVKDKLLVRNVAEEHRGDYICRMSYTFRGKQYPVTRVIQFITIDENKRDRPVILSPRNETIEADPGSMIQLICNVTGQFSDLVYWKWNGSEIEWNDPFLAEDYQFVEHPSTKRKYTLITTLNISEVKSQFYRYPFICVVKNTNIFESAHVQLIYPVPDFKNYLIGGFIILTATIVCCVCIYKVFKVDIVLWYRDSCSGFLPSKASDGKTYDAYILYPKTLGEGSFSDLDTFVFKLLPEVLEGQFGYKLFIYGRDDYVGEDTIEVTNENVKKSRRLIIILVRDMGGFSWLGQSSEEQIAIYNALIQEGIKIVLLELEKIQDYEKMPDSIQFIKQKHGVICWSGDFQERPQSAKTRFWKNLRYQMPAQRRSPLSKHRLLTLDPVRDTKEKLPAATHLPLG
compound,measurement,setting,value
"CCCCCCCCCCCCCCCCOC[C@H](COP(=O)([O-])OCC[N+](C)(C)C)OCCCCC(=O)O [VB-201, (R)-1-hexadecyl-2-(4′-carboxyl)butyl-sn-glycero-3-phosphocholine]","activation of p38, ERK1/2 and the NFκB pathway following TLR5 activation",TLR5,no apparent effect
same,antagonistic effect against CCR5,CCR5,did not induce an antagonistic effect
same,antagonistic effect against CCR2B,CCR2B,did not induce an antagonistic effect
same,p38 phosphorylation following activation of IL-1 receptor,IL-1 receptor (IL-1R),no apparent effect
same,LPS-induced signaling,TLR4; RAW 264.7 murine macrophages,inhibited LPS-induced signaling in a dose-dependent manner
same,p38 phosphorylation following activation of TLR4,"TLR4; mouse BMDCs, LPS, 1.7, 8.5 or 17 μM",inhibited p^38 phosphorylation in a dose-dependent manner
same,"activation of p38, ERK1/2 and the NFκB pathway following activation of TLR4","TLR4; mouse peritoneal macrophages, LPS, 1.7, 8.5 or 17 μM","inhibited activation of p38, ERK1/2 and the NFκB pathway in a dose-dependent manner"
same,inhibition of peritoneal macrophage accumulation,C57B6J WT mice; 0.04 mg/kg/day,no inhibitory effect
same,inhibition of peritoneal macrophage accumulation,C57B6J WT mice; 0.4 mg/kg,~25%
same,reduction in the number of peritoneal macrophages relative to PBS-treated animals,C57B6J WT mice; 4 mg/kg,> 60%
same,binding of biotinylated LPS to macrophages,RAW 264.7 macrophages,inhibited binding of biotinylated LPS to macrophages in a dose dependent manner
same,inhibition of COX-1,COX-1,No inhibition
same,ERK1/2 phosphorylation and MEK1/2 phosphorylation,[1],inhibition by VB-201 of ERK1/2 phosphorylation and MEK1/2 phosphorylation
same,VB-201 in mice plasma,[2]; 0.4 mg/kg,0.8 ± 0.3 µmol/L
same,VB-201 plasma level,[2]; 4 mg/kg,8.5 ± 1.5 µmol/L
same,plaque formation relative to the PBS control,"ApoE KO mice; 1.5 mg/kg, daily oral gavage, 8 weeks",significantly reduced plaque formation
same,fatty streaks,"ApoE KO mice; daily oral gavage, 8 weeks, 0.15 or 1.5 mg/kg",markedly reduced
same,macrophage accumulation in the aortic sinus lesion (anti-CD68),ApoE KO mice; relative to controls,reduced
same,intracellular cAMP levels,[3],not affected
same,"inhibition of kinases, phosphatases, ion channels/ransporters",[4],No inhibition
same,"activation of p38, ERK1/2 and the NFκB pathway following activation of TLR2 by serum amyloid A",TLR2; THP-1 cells,"inhibited activation of p38, ERK1/2 and the NFκB pathway"
same,"activation of p38, ERK1/2 and the NFκB pathway following activation of TLR2 by serum amyloid A",TLR2; human CD14+ cells,"inhibited activation of p38, ERK1/2 and the NFκB pathway"
